Reference: a compilation of properties of binary mixtures (doi:10.1524/zpch.2013.0326)

Test: xn = mol fraction of the nth substance listed
Settings: 101 kPa

Cc1ccccc1 + CCCCCCCC[n+]1ccc2ccccc2c1.O=S(=O)([N-]S(=O)(=O)C(F)(F)F)C(F)(F)F
x1 = 1
Settings	viscosity [mPa·s]
298.15 K	0.56
318.15 K	0.45
328.15 K	0.4
338.15 K	0.37
348.15 K	0.33

c1ccccc1 + CCCCCCCC[n+]1ccc2ccccc2c1.O=S(=O)([N-]S(=O)(=O)C(F)(F)F)C(F)(F)F
x1 = 1
Settings	viscosity [mPa·s]
298.15 K	0.6
318.15 K	0.47
338.15 K	0.37
348.15 K	0.34

c1ccncc1 + CCCCCCCC[n+]1ccc2ccccc2c1.O=S(=O)([N-]S(=O)(=O)C(F)(F)F)C(F)(F)F
x1 = 1
Settings	viscosity [mPa·s]
218.15 K	0.67
298.15 K	0.89
308.15 K	0.76
328.15 K	0.59
348.15 K	0.52

c1ccsc1 + CCCCCCCC[n+]1ccc2ccccc2c1.O=S(=O)([N-]S(=O)(=O)C(F)(F)F)C(F)(F)F
x1 = 1
Settings	viscosity [mPa·s]
298.15 K	0.62
308.15 K	0.54
318.15 K	0.48
328.15 K	0.42
338.15 K	0.38

CCCCCCCC[n+]1ccc2ccccc2c1.O=S(=O)([N-]S(=O)(=O)C(F)(F)F)C(F)(F)F + Cc1ccccc1
viscosity [mPa·s]
Settings	298.15 K	308.15 K	318.15 K	328.15 K	338.15 K	348.15 K
x2 = 0	369	191	108.7	67.9	–	31.62
x2 = 0.0818	–	–	94.1	58.9	39.34	27.64
x2 = 0.1949	200	111.3	–	43.52	29.87	21.41
x2 = 0.2746	143.3	–	50.3	33.2	23.14	16.87
x2 = 0.3638	96.8	58.2	37.73	–	18.51	13.76
x2 = 0.4295	67.4	–	27.64	–	14.19	10.81
x2 = 0.4775	–	–	22.12	15.77	–	9
x2 = 0.4902	–	31.17	21.24	15.26	11.43	8.83
x2 = 0.5467	35.44	23.45	16.48	–	9.23	7.21
x2 = 0.6148	22.18	15.4	–	8.46	6.59	5.28
x2 = 0.7004	12.67	9.25	7.03	–	4.44	3.65
x2 = 0.7634	7.73	5.89	4.64	3.76	3.11	2.62
x2 = 0.8672	3.2	2.62	–	1.88	1.65	1.48

CCCCCCCC[n+]1ccc2ccccc2c1.O=S(=O)([N-]S(=O)(=O)C(F)(F)F)C(F)(F)F + c1ccccc1
viscosity [mPa·s]
Settings	298.15 K	308.15 K	318.15 K	328.15 K	338.15 K	348.15 K
x2 = 0	–	191	–	67.9	44.8	31.62
x2 = 0.0912	301	158.8	92	57.6	38.53	27.1
x2 = 0.1505	249	134.2	79.2	–	34.07	24.21
x2 = 0.295	150.9	85.5	52.8	34.86	24.3	17.61
x2 = 0.332	133.1	76.4	–	–	22.32	–
x2 = 0.4679	–	–	26.93	18.76	13.7	10.41
x2 = 0.5663	37.49	24.56	–	12.25	9.21	7.15
x2 = 0.654	21.25	14.55	10.5	7.91	6.15	–
x2 = 0.673	–	7.96	6.05	–	–	3.15
x2 = 0.7443	–	4.55	3.6	2.94	2.46	2.11
x2 = 0.8143	2.78	2.28	1.92	1.66	–	1.34
x2 = 0.8961	0.96	0.83	0.74	0.65	0.59	–
